# Columns and labels:
# Format in all cases: functional
# [1] = test system: Podosphaera fuliginea; assay: Antifungal activity against Podosphaera fuliginea in cucumber at 7.8 ppm
# [2] = test system: Pseudoperonospora cubensis; assay: Antifungal activity against Pseudoperonospora cubensis in cucumber at 500 ppm
# [3] = test system: Botrytis cinerea; assay: Antifungal activity against Botryotinia fuckeliana in cucumber at 500 ppm
# [4] = test system: Pseudoperonospora cubensis; assay: Antifungal activity against Pseudoperonospora cubensis in cucumber at 7.8 ppm
# [5] = test system: Podosphaera fuliginea; assay: Antifungal activity against Podosphaera fuliginea in cucumber at 31.3 ppm
# [6] = test system: Pseudoperonospora cubensis; assay: Antifungal activity against Pseudoperonospora cubensis in cucumber at 31.3 ppm
# [7] = test system: Podosphaera fuliginea; assay: Antifungal activity against Podosphaera fuliginea in cucumber at 125 ppm
# [8] = test system: Podosphaera fuliginea; assay: Antifungal activity against Podosphaera fuliginea in cucumber at 500 ppm
# [9] = test system: Pseudoperonospora cubensis; assay: Antifungal activity against Pseudoperonospora cubensis in cucumber at 2 ppm
# [10] = test system: Podosphaera fuliginea; assay: Antifungal activity against Podosphaera fuliginea in cucumber at 2 ppm
# [11] = test system: Botrytis cinerea; assay: Antifungal activity against Botryotinia fuckeliana in cucumber at 7.8 ppm
# [12] = test system: Pseudoperonospora cubensis; assay: Antifungal activity against Pseudoperonospora cubensis in cucumber at 125 ppm
smiles,measurement,setting,value
CO/N=C(\c1ccccc1/C=N/OCc1ccc(Cl)cc1)c1nccn1C,Activity,[1],90%
same,Activity,[2],<50%
CO/N=C(\c1ccccc1/C=N/N=C(/C)c1ccc(Cl)c(Cl)c1)c1nccn1C,Activity,[1],90%
same,Activity,[3],<50%
same,Activity,[4],50%
CO/N=C(\c1ccccc1/C=N/OC(C)c1ccc(OC)cc1)c1nccn1C (stereo not drawn),Activity,[5],90%
same,Activity,[2],<50%
CO/N=C(\c1ccccc1/C=N/OC(C)c1ccc(C)cc1)c1nccn1C (stereo not drawn),Activity,[5],90%
same,Activity,[2],<50%
CO/N=C(\c1ccccc1/C=N/N=C(/C)c1ccc(Cl)cc1)c1nccn1C,Activity,[5],90%
same,Activity,[3],<50%
same,Activity,[6],50%
CO/N=C(\c1ccccc1/C=N/OC(C)c1ccccc1C(F)(F)F)c1nccn1C (stereo not drawn),Activity,[7],90%
same,Activity,[2],<50%
CO/N=C(\c1ccccc1/C=N/OC(C)c1ccccc1Cl)c1nccn1C (stereo not drawn),Activity,[7],90%
same,Activity,[2],<50%
CO/N=C(\c1ccccc1/C=N/OC(C)c1ccc(Br)cc1)c1nccn1C (stereo not drawn),Activity,[1],90%
same,Activity,[4],50%
CO/N=C(\c1ccccc1/C=N/OC(C)c1ccccc1C)c1nccn1C (stereo not drawn),Activity,[2],<50%
same,Activity,[8],90%
CO/N=C(\c1ccccc1/C=N/OC(C)c1ccccc1)c1nccn1C (stereo not drawn),Activity,[7],90%
same,Activity,[2],<50%
CO/N=C(\c1ccccc1/C=N/OC(C)c1ccc(C(F)(F)F)cc1)c1nccn1C (stereo not drawn),Activity,[9],50%
same,Activity,[10],90%
same,Activity,[3],<50%
CO/N=C(\c1ccccc1/C=N/OC(C)c1cccc(Cl)c1)c1nccn1C (stereo not drawn),Activity,[7],90%
same,Activity,[2],<50%
CO/N=C(\c1ccccc1COc1ccc(C(F)(F)F)cn1)c1nccn1C,Activity,[1],90%
same,Activity,[2],50%
same,Activity,[3],50%
CO/N=C(\c1ccccc1COc1ccc(Cl)cc1C)c1nccn1C,Activity,[11],50%
same,Activity,[10],90%
same,Activity,[2],<50%
CO/N=C(\c1ccccc1/C=N/OC(C)c1ccc(Cl)c(Cl)c1)c1nccn1C (stereo not drawn),Activity,[10],90%
same,Activity,[3],50%
same,Activity,[4],50%
CO/N=C(\c1ccccc1/C=N/OC(C)c1ccc(Cl)cc1Cl)c1nccn1C (stereo not drawn),Activity,[5],90%
same,Activity,[2],<50%
CO/N=C(\c1ccccc1COc1ncc(Cl)cc1Cl)c1nccn1C,Activity,[1],90%
same,Activity,[3],50%
same,Activity,[12],50%
CO/N=C(\c1ccccc1/C=N/OC(C)c1ccc(Cl)cc1)c1nccn1C (stereo not drawn),Activity,[10],90%
same,Activity,[3],50%
same,Activity,[4],50%
CO/N=C(\c1ccccc1/C=N/OC(C)c1ccc(OC(F)(F)F)cc1)c1nccn1C (stereo not drawn),Activity,[9],50%
same,Activity,[10],90%
CO/N=C(\c1ccccc1/C=N/OC(C)c1cccc(C)c1)c1nccn1C (stereo not drawn),Activity,[5],90%
same,Activity,[2],<50%
CO/N=C(\c1ccccc1/C=N/N=C(/C)c1ccc(C(F)(F)F)cc1)c1nccn1C,Activity,[1],90%
same,Activity,[3],<50%
same,Activity,[4],50%
CO/N=C(\c1ccccc1/C=N/OC(C)c1cccc(C(F)(F)F)c1)c1nccn1C (stereo not drawn),Activity,[10],90%
same,Activity,[2],50%
CO/N=C(\c1ccccc1COc1ccc(Cl)cn1)c1nccn1C,Activity,[5],90%
same,Activity,[2],50%
same,Activity,[3],50%
CCC(O/N=C/c1ccccc1/C(=N\OC)c1nccn1C)c1ccc(Cl)c(Cl)c1 (stereo not drawn),Activity,[5],90%
same,Activity,[4],50%

# Source: ChEMBL document CHEMBL3046967, “Synthesis and Fungicidal Activities of 2-(-Methoxyiminobenzyl)-1-methylimidazole Derivatives” (2001)
